Results from PubChem BioAssay AID1845202 (Molecular Pharmacology Branch, DTP, NCI, 2023).

Tested on: DMS 114 tumor spheroids, viability % test/control
Assay: Anticancer human tumor DMS 114 cell line growth inhibition;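 further: spheroids exposed to compounds for 7 days before read-out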;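 on viability, T/C: luminescence used as a proxy for viable cells; 100% = DMSO vehicle control viability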
Settings: spheroids with HUVEC and MSC; for IC50: curve of first compound; for viability, T/C: stronger effect = lower value
Excerpt: Multicellular complex tumor spheroid response to DNA repair inhibitors in combination with DNA-damaging drugs
This study explores the anticancer activities of DNA-damaging drugs and inhibitors of DNA damage repair, both as single agents and in combinations. Complex tumor spheroids comprised of malignant cells, endothelial cells and mesenchymal stem cells served as an in vitro model for human solid tumors. This model system incorporates physiologically relevant features and patient-derived or established malignant cell lines with clinically relevant genetic alterations from many tumor types. Twenty-six patient-derived or established malignant cell lines were evaluated representing sarcoma, melanoma, small cell lung cancer (SCLC), non-small cell lung cancer (NSCLC), as well as bladder, ovarian and pancreatic cancers. The concentration ranges selected for each drug and investigational agent were based upon clinically achievable concentrations if the clinical Cmax of the agent was known.
Compounds. The drugs and compounds olaparib (NSC753686), talazoparib (NSC767125), berzosertib (NSC777718), elimusertib (NSC800525), nedisertib (NSC802822), VX-984 (NSC792969), AZD-1390 (NSC803789), temozolomide (NSC362856), topotecan (NSC609699), trabectedin (NSC813783), staurosporine (NSC755774), and gemcitabine (NSC613327) were obtained from the National Cancer Institute (NCI) Developmental Therapeutics Program Chemical Repository. The FDA-approved anticancer drug set is available from the Developmental Therapeutics Program at https://dtp.cancer.gov/organization/dscb/obtaining/available_plates.htm. […] The stock solutions were prepared in dimethyl sulfoxide (DMSO, Sigma-Aldrich, St. Louis, MO, cat. D2650) at 400-fold the tested concentration and stored at -70 degrees C. Prior to their use, the stock solutions were diluted in fresh medium and the final DMSO concentration in the assay was 0.25% (v/v). All drugs and investigational agents were tested over a range starting from a high concentration at or near the clinical Cmax and decreasing in half-log increments. If the clinical Cmax for an agent had not been determined, the highest concentration tested was 10 microM.
Cell Lines. The patient-derived cancer cell (PDC) lines: 156681-154-R-J1-PDC, 283228-195-R-J1-PDC, 287954-098-R-J1-PDC, 292921-168-R-J2-PDC, 349418-098-R-PDC, 425362-245-T-J1-PDC, 556581-035-R-J1-PDC, and BL0293-F563-PDC were received from the NCI Patient-Derived Models Repository (PDMR, https://pdmr.cancer.gov). The established cell lines HS-SY-2 (RRID:CVCL_8719), MPNST, and SYO-1 (RRID:CVCL_7146) were obtained from the Sloan Kettering Institute. The alveolar soft parts sarcoma cell line ASPS-1 (RRID:CVCL_S738) was established at the NCI and grown from internal seed stocks. The following established cell lines were purchased from the American Type Culture Collection (ATCC, Manassas, VA): G-401 (ATCC, cat. CRL-1441, RRID:CVCL_0270), SW982 (ATCC, cat. HTB-93, RRID:CVCL_1734), VA-ES-BJ (ATCC, cat. CRL-2138, RRID:CVCL_1785), NCI-H719 (ATCC, cat. CRL-5837, RRID:CVCL_1582), NCI-H196 (ATCC, cat. CRL-5823, RRID:CVCL_1509), NCI-H841 (ATCC, cat. CRL-5845, RRID:CVCL_1595), NCI-H1618 (ATCC, cat. CRL-5879, RRID:CVCL_1480), NCI-H1876 (ATCC, cat. CRL-5902, RRID:CVCL_1503), DMS 114 (ATCC, cat. CRL-2066; RRID:CVCL_1174), NCI-H211 (ATCC, cat. CRL-5824; RRID:CVCL_1529), and SW 1271 (ATCC, cat. CRL-2177, RRID:CVCL_1716). The small cell lung cancer cell line COR-L88 was purchased from Sigma-Aldrich (cat. 92031917-1VL, RRID:CVCL_1141). The non-small cell lung cancer cell lines NCI-H226 (RRID:CVCL_1544) and NCI-H322M (RRID:CVCL_1557) were established at the NCI and grown from internal seed stocks. Pooled donor human umbilical vein endothelial cells (HUVEC, Lonza, cat. CC-2519) and human mesenchymal stem cells (hMSC, Lonza, cat. PT-2501) were purchased from Lonza (Walkersville, MD).
Cell Culture. All cells were maintained in an incubator at 37 degrees C and 5% CO2 with 95% humidity. […]

Question: Which IC50 (second compound 0.003 µM) does the source give for Cc1cc(C)c(CNC(=O)c2cc(-c3ccc(CN4CCOCC4)cc3)cc3c2cnn3C2CCCC2)c(=O)[nH]1 + CC[C@@]1(O)C(=O)OCc2c1cc1n(c2=O)Cc2cc3c(CN(C)C)c(O)ccc3nc2-1 here?
Answer: > 10000 nM

Question: And the IC50 (second compound 0.00949 µM)?
Answer: > 10000 nM

Question: And the IC50 (second compound 0.03 µM)?
Answer: < 31.6 nM

Question: What about the IC50 (second compound 0.0949 µM) of the same compound?
Answer: < 31.6 nM

Question: And the IC50 (second compound 0.3 µM)?
Answer: < 31.6 nM

Question: What about the viability, T/C (second compound 0.003 µM, first compound 0.0316 µM) of the same compound?
Answer: 112%

Question: What about the viability, T/C (second compound 0.003 µM, first compound 0.1 µM) of the same compound?
Answer: 117%

Question: And the viability, T/C (second compound 0.003 µM, first compound 0.316 µM)?
Answer: 108%

Question: What about the viability, T/C (second compound 0.003 µM, first compound 1 µM) of the same compound?
Answer: 106%

Question: And the viability, T/C (second compound 0.003 µM, first compound 3.16 µM)?
Answer: 98.2%

Question: And the viability, T/C (second compound 0.003 µM, first compound 10 µM)?
Answer: 59.6%

Question: And the viability, T/C (second compound 0.00949 µM, first compound 0.0316 µM)?
Answer: 96.2%

Question: What about the viability, T/C (second compound 0.00949 µM, first compound 0.1 µM) of the same compound?
Answer: 105%

Question: And the viability, T/C (second compound 0.00949 µM, first compound 0.316 µM)?
Answer: 95.4%

Question: And the viability, T/C (second compound 0.00949 µM, first compound 1 µM)?
Answer: 97.1%

Question: What about the viability, T/C (second compound 0.00949 µM, first compound 3.16 µM) of the same compound?
Answer: 84.9%

Question: What about the viability, T/C (second compound 0.00949 µM, first compound 10 µM) of the same compound?
Answer: 58.9%

Question: And the viability, T/C (second compound 0.03 µM, first compound 0.0316 µM)?
Answer: 33.3%

Question: What about the viability, T/C (second compound 0.03 µM, first compound 0.1 µM) of the same compound?
Answer: 39.5%

Question: What about the viability, T/C (second compound 0.03 µM, first compound 0.316 µM) of the same compound?
Answer: 28.3%

Question: And the viability, T/C (second compound 0.03 µM, first compound 1 µM)?
Answer: 35.5%

Question: What about the viability, T/C (second compound 0.03 µM, first compound 3.16 µM) of the same compound?
Answer: 32.1%

Question: And the viability, T/C (second compound 0.03 µM, first compound 10 µM)?
Answer: 30.7%

Question: And the viability, T/C (second compound 0.0949 µM, first compound 0.0316 µM)?
Answer: 16%

Question: And the viability, T/C (second compound 0.0949 µM, first compound 0.1 µM)?
Answer: 15.5%

Question: What about the viability, T/C (second compound 0.0949 µM, first compound 0.316 µM) of the same compound?
Answer: 14.8%

Question: What about the viability, T/C (second compound 0.0949 µM, first compound 1 µM) of the same compound?
Answer: 16%

Question: What about the viability, T/C (second compound 0.0949 µM, first compound 3.16 µM) of the same compound?
Answer: 17.2%

Question: What about the viability, T/C (second compound 0.0949 µM, first compound 10 µM) of the same compound?
Answer: 15.5%

Question: What about the viability, T/C (second compound 0.3 µM, first compound 0.0316 µM) of the same compound?
Answer: 9.14%

Question: And the viability, T/C (second compound 0.3 µM, first compound 0.1 µM)?
Answer: 9.67%

Question: What about the viability, T/C (second compound 0.3 µM, first compound 0.316 µM) of the same compound?
Answer: 9.76%

Question: And the viability, T/C (second compound 0.3 µM, first compound 1 µM)?
Answer: 10.1%

Question: What about the viability, T/C (second compound 0.3 µM, first compound 3.16 µM) of the same compound?
Answer: 12.1%

Question: What about the viability, T/C (second compound 0.3 µM, first compound 10 µM) of the same compound?
Answer: 17.6%
